The record followed here is patent publication US7737112B2, “Composition for enzyme inhibition” (Onyx Therapeutics, Inc., priority 2004, dated 2010).

Common to all, as to type: physicochemical
Series [1] is described as follows: solubility of peptide epoxy ketones in cyclodextrin formulations. How it is done:
100 μg/mL peptide (b) was formulated in an aqueous solution containing 130 mg/mL hydroxypropyl beta cyclodextrin (HPBCD) and ca. 0.9% (w/v) NaCl.
2 mg/mL peptide (a) was formulated in an aqueous solution containing 10% (w/v) SBECD and 10 mM citric acid adjusted to pH 3.5 with 0.1 M aqueous sodium hydroxide.
(§1) Appropriate masses of SBECD and citric acid were added to a volume of WFI corresponding to approximately 75% that of the final formulation. This mixture was then stirred at room temperature until complete dissolution of the SBECD and citric acid was effected. An appropriate mass of peptide (a) was then added and the resulting mixture stirred at room temperature until the added peptide (a) was dissolved. A pH electrode was then immersed in the solution and, with rapid stirring, the pH was adjusted to 3.5 by slow addition of 0.1 M sodium hydroxide in WFI; slow addition of the sodium hydroxide solution with adequate stirring was necessary to prevent precipitation of peptide (a). With rapid stirring, the resulting solution was then diluted with WFI to a final peptide (a) concentration of 2.0 mg/mL. This solution was then sterile filtered to yield the final formulation.
Several other final pH values were used for the peptide (a)/SBECD formulations.

Series [2] in a line: room temperature stability of reconstituted peptide (b)/HPBCD drug product. Particulars: 100 μg/mL peptide (b)/HPBCD solid reconstituted in aqueous 0.9% (w/v) NaCl, sterile filtered. How it is done:
The desired quantity of peptide (b) was weighed and dissolved in absolute ethanol at a concentration of 1 mg/mL. For each 1 mg of peptide (b) to be formulated, 1.3 g HPBCD was dissolved in absolute ethanol at a concentration of 10 mg/mL. This ethanol/HPBCD solution was then combined with the ethanol/peptide (b) solution, stirred 5 minutes at room temperature and then evaporated under reduced pressure (rotovapped) to yield a white solid. This solid was placed under high vacuum (ca. 1 mTorr) for 24 hrs, pulverized and then placed under high vacuum (ca. 1 mTorr) for another 4 hrs to yield dry solid. The final formulation was prepared by dissolving this solid drug product to a final concentration of 100 μg peptide (b)/mL solid drug product in ice cold USP grade aqueous 0.9% (w/v) NaCl followed by sterile filtration. Room temperature stability of the reconstituted drug product was ca. 12 hrs.

Series [3] in a line: reconstitution of lyophilized (3x) peptide (a)/SBECD formulation. How it is done:
6 mg/mL peptide (a) was formulated in an aqueous solution containing 30% (w/v) SBECD and 30 mM citric acid adjusted to pH 3.5 with 0.5 M aqueous sodium hydroxide.
as §1, with “70%” for “approximately 75%”, “0.5” for “0.1”, “6.0” for “2.0”
The vials containing product were loaded onto the shelves and the temperature set for 5° C. for 2 hrs. […]
Reconstitution was effected by addition of 9.75 mL of WFI, USP to produce the desired fill volume within the vial of 10.5 mL. […] The pH measured was 3.5±0.1.

Take `CC(=O)N[C@@H](CCc1ccccc1)C(=O)N[C@@H](CC(C)C)C(=O)N[C@@H](Cc1ccccc1)C(=O)N[C@@H](CC(C)C)C(=O)[C@@]1(C)CO1` [peptide (b)]: the “state of the solution at room temperature” value in series [1] (100 μg/mL in aqueous 130 mg/mL HPBCD, ca. 0.9% (w/v) NaCl, could not be made by simply dissolving) is given as “supersaturated (metastable)”. The “solubility when formulated with a cyclodextrin” value in series [1] was “significantly enhanced”. Also, the “Room temperature stability of the reconstituted drug product” value in series [2] was “ca. 12 hrs”.
Turning to `CC(C)C[C@H](NC(=O)[C@H](CCc1ccccc1)NC(=O)CN1CCOCC1)C(=O)N[C@@H](Cc1ccccc1)C(=O)N[C@@H](CC(C)C)C(=O)[C@@]1(C)CO1` [peptide (a)], the “time for dissolution on reconstitution” value in series [3] (lyophilized 6 mg/mL peptide (a), 30% (w/v) SBECD, 30 mM citric acid pH 3.5, 9.75 mL WFI added, fill volume 10.5 mL) is “less than 2 minutes”. The “pH measured after reconstitution” value in series [3] (lyophilized peptide (a)/SBECD/citrate formulation reconstituted with WFI) came out at 3.5±0.1. For the same compound, in series [1], the “solubility when formulated with a cyclodextrin” value is “significantly enhanced”.
